Measurements taken from the supplement of paper PMC11208160.

Assay: recombinant barcode read abundance after kanamycin selection (control-corrected) (log10(CPM+1)); higher = more efficient recombination; sequences stand for … in AGTGCAGAGAAAATCGGCCAGTTTTCTCTGCCTGCAGTCCGCATGCCGT…AGATTTATGCAGCGGACTGCCTTTCTCCCAAAGTGATAAACCGGACAGTATCATGGACCGGTTTTCCCGGTAATCCGTATTTGCAAGGTTGGTTTCACT; site = the 11-nt target
Experimental: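 Pooled E. coli target-specificity screen for the IS621 bridge recombinase. Each library plasmid pairs an 11-nt target (CT core) with a bridge RNA whose target-binding loop (9-nt LTG + 4-nt RTG) is reprogrammed; the rest of the 177-nt WT IS621 bridge RNA scaffold is fixed. The plasmid is co-electroporated with a WT donor plasmid; recombinase is induced with 0.1 mM IPTG and recombinants are selected on kanamycin. Recombinant barcodes are sequenced, converted to CPM, averaged over two biological replicates and corrected by the unselected control CPM. Molecule = full bridge RNA written as DNA: LTG = specificity nt 1-9, RTG = reverse complement of specificity nt 8-11, in the WT scaffold.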
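Wherever recombinant UMI read abundance after kanamycin selection (control-corrected) is given: IS621 bridge recombinase in Escherichia coli cells against a fixed T5 target plasmid.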
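Wherever recombinant barcode read abundance after kanamycin selection (control-corrected) is given: IS621 recombinase and bridge RNA in Escherichia coli cells.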

| Sequence | recombinant barcode read abundance (log10) |
| --- | --- |
| AAACCGCCTTGGGTTCTAACCTGTTGCCT (site AAACCGCCTAG) | 1.11 |
| AAACCGCCTTGGGTTCTAACCTGTTGCCT (site AAACGGCCTAG) | 0.163 |
| AAACGGCCTTGGGTTCTAACCTGTTGCCT (site AAACCGCCTAG) | 0.147 |
| AAACGGCCTTGGGTTCTAACCTGTTGCCT (site AAACGGCCTAG) | 0.522 |
| AAACGGTCTTGGGTTCTAACCTGTTGCTA (site AAACGGTCTTA) | 1.53 |
| AAACGGTCTTGGGTTCTAACCTGTTGCTA (site AAATGGTCTTA) | 0.131 |
| AAAGCTACTTGGGTTCTAACCTGTTGCCT (site AAAGCTACTAG) | 1.11 |
| AAAGCTACTTGGGTTCTAACCTGTTGCCT (site AAAGCTCCTAA) | 0.124 |
| AAAGGGGCTTGGGTTCTAACCTGTTGCCT (site AAAGGGGCTAG) | 2.2 |
| AAAGGGGCTTGGGTTCTAACCTGTTGCCT (site TTGCATTCTCA) | 0.155 |
| AAAGGGTCTTGGGTTCTAACCTGTTGCCT (site AAAGGGTCTAG) | 1.8 |
| AAAGGGTCTTGGGTTCTAACCTGTTGCCT (site ACAGGGTCTAG) | 0.327 |
| AAAGGGTCTTGGGTTCTAACCTGTTGCCT (site AGAGGGTCTAG) | 0.0828 |
| AAAGGGTCTTGGGTTCTAACCTGTTGCCT (site ATAGGGTCTAG) | 0.689 |
| AAAGGTCCTTGGGTTCTAACCTGTTGCAG (site AAAGGTCCTCT) | 2.69 |
| AAAGGTCCTTGGGTTCTAACCTGTTGCAG (site CTTTAGTCTTA) | 0.0927 |
| AAAGGTTCTTGGGTTCTAACCTGTTGCCT (site AAAGGTTCTAG) | 1.58 |
| AAAGGTTCTTGGGTTCTAACCTGTTGCCT (site ACAGGTTCTAG) | 0.0935 |
| AAAGGTTCTTGGGTTCTAACCTGTTGCCT (site AGAGGTTCTAG) | 0.0624 |
| AAAGGTTCTTGGGTTCTAACCTGTTGCCT (site ATAGGTTCTAG) | 0.126 |
| AAAGTACCTTGGGTTCTAACCTGTTGCCT (site AAAGTACCTAG) | 2 |

| Sequence | recombinant barcode read abundance (log10) |
| --- | --- |
| AAAGTACCTTGGGTTCTAACCTGTTGCCT (site CAAGTACCTAG) | 0.741 |
| AAAGTACCTTGGGTTCTAACCTGTTGCCT (site GAAGTACCTAG) | 0.0449 |
| AAAGTACCTTGGGTTCTAACCTGTTGCCT (site TAAGTACCTAG) | 1.16 |
| AAAGTCCCTTGGGTTCTAACCTGTTGCCT (site AAAGTCCCTAG) | 1.03 |
| AAAGTCCCTTGGGTTCTAACCTGTTGCCT (site CAAGTCCCTAG) | 0.361 |
| AAAGTCCCTTGGGTTCTAACCTGTTGCCT (site GAAGTCCCTAG) | 0.218 |
| AAAGTCCCTTGGGTTCTAACCTGTTGCCT (site TAAGTCCCTAG) | 0.481 |
| AAATGGTCTTGGGTTCTAACCTGTTGCTA (site AAACGGTCTTA) | 0.814 |
| AAATGGTCTTGGGTTCTAACCTGTTGCTA (site AAATGGTCTTA) | 1.69 |
| AAATGTACTTGGGTTCTAACCTGTTGCCT (site AAATGTACTAG) | 1.04 |
| AAATGTACTTGGGTTCTAACCTGTTGCCT (site TGGGTCCCTTC) | 0.0555 |
| AACAATGCTTGGGTTCTAACCTGTTGCCT (site AACAATGCTAG) | 0.713 |
| AACAATGCTTGGGTTCTAACCTGTTGCCT (site AACACTGCTAG) | 0.33 |
| AACAATGCTTGGGTTCTAACCTGTTGCCT (site AACAGTGCTAG) | 0.207 |
| AACAATGCTTGGGTTCTAACCTGTTGCCT (site AACATTGCTAG) | 0.0444 |
| AACAGACCTTGGGTTCTAACCTGTTGCCT (site AACAGACCTAG) | 1.62 |
| AACAGACCTTGGGTTCTAACCTGTTGCCT (site CACAGACCTAG) | 0.116 |
| AACAGACCTTGGGTTCTAACCTGTTGCCT (site GACAGACCTAG) | 0.291 |
| AACAGACCTTGGGTTCTAACCTGTTGCCT (site TACAGACCTAG) | 0.686 |
| AACAGGGCTTGGGTTCTAACCTGTTGCCG (site AACAGGGCTCG) | 1.22 |

Assay: recombinant UMI read abundance after kanamycin selection (control-corrected) (log10(CPM+1)); higher = more efficient recombination; extreme values may be limits of the assay; sequences stand for … in AGTGCAGAGAAAATCGGCCAGTTTTCTCTGCCTGCAGTCCGCATGCCGTGGGACCCCTTGGGTTCTAACCTGTTGCCTAGATTTATGCAGCGGACTGCCTTTCTCCCAAAGTGATAAACCGG…AGGTTGGTTTCACT; site = the 11-nt donor
Outline: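 Two replicates each of selected and unselected plating were used in this pooled Escherichia coli screen of donor and donor-binding-loop pairs for the IS621 bridge recombinase. Selection was with IPTG (0.07 mM) and kanamycin. Counts of recombinant UMIs, amplified across the donor–target junction, were converted to CPM, averaged, scaled by control-derived factors and reported as log10(CPM+1).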

| Sequence | recombinant UMI read abundance (log10) |
| --- | --- |
| TTTGCGGCATGGACCGGTTTTCCCGGTAATCCGTATTTGCT (site TGTGCGGCTAG) | 0.0128 |
| TTTGCGGCATGGACCGGTTTTCCCGGTAATCCGTATTTGCT (site TTAGCGGCTAG) | 0.486 |
| TTTGCGGCATGGACCGGTTTTCCCGGTAATCCGTATTTGCT (site TTCGCGGCTAG) | 0 |
| TTTGCGGCATGGACCGGTTTTCCCGGTAATCCGTATTTGCT (site TTGGCGGCTAG) | 0.0258 |
| TTTGCGGCATGGACCGGTTTTCCCGGTAATCCGTATTTGCT (site TTTACGGCTAG) | 0.658 |
| TTTGCGGCATGGACCGGTTTTCCCGGTAATCCGTATTTGCT (site TTTCCGGCTAG) | 0.0114 |
| TTTGCGGCATGGACCGGTTTTCCCGGTAATCCGTATTTGCT (site TTTGAGGCTAG) | 0.00621 |
| TTTGCGGCATGGACCGGTTTTCCCGGTAATCCGTATTTGCT (site TTTGCAGCTAG) | 0.0183 |
| TTTGCGGCATGGACCGGTTTTCCCGGTAATCCGTATTTGCT (site TTTGCCGCTAG) | 0.00324 |
| TTTGCGGCATGGACCGGTTTTCCCGGTAATCCGTATTTGCT (site TTTGCGACTAG) | 0 |
| TTTGCGGCATGGACCGGTTTTCCCGGTAATCCGTATTTGCT (site TTTGCGCCTAG) | 0.00251 |
| TTTGCGGCATGGACCGGTTTTCCCGGTAATCCGTATTTGCT (site TTTGCGGCTAA) | 0.0285 |
| TTTGCGGCATGGACCGGTTTTCCCGGTAATCCGTATTTGCT (site TTTGCGGCTAC) | 0.0071 |
| TTTGCGGCATGGACCGGTTTTCCCGGTAATCCGTATTTGCT (site TTTGCGGCTAG) | 0.75 |
| TTTGCGGCATGGACCGGTTTTCCCGGTAATCCGTATTTGCT (site TTTGCGGCTAT) | 0.0119 |
| TTTGCGGCATGGACCGGTTTTCCCGGTAATCCGTATTTGCT (site TTTGCGGCTCG) | 0.0133 |

| Sequence | recombinant UMI read abundance (log10) |
| --- | --- |
| TTTGCGGCATGGACCGGTTTTCCCGGTAATCCGTATTTGCT (site TTTGCGGCTGG) | 0 |
| TTTGCGGCATGGACCGGTTTTCCCGGTAATCCGTATTTGCT (site TTTGCGGCTTG) | 0.00988 |
| TTTGCGGCATGGACCGGTTTTCCCGGTAATCCGTATTTGCT (site TTTGCGTCTAG) | 0.00651 |
| TTTGCGGCATGGACCGGTTTTCCCGGTAATCCGTATTTGCT (site TTTGCTGCTAG) | 0 |
| TTTGCGGCATGGACCGGTTTTCCCGGTAATCCGTATTTGCT (site TTTGGGGCTAG) | 0.00746 |
| TTTGCGGCATGGACCGGTTTTCCCGGTAATCCGTATTTGCT (site TTTGTGGCTAG) | 0.00957 |
| TTTGCGGCATGGACCGGTTTTCCCGGTAATCCGTATTTGCT (site TTTTCGGCTAG) | 0.00374 |
| TTTGGCACATGGACCGGTTTTCCCGGTAATCCGTATTTGGC (site TTTGGCACTGC) | 0.00668 |
| TTTGGGGCATGGACCGGTTTTCCCGGTAATCCGTATTTGCT (site TTTGAGGCTAG) | 0.621 |
| TTTGGGGCATGGACCGGTTTTCCCGGTAATCCGTATTTGCT (site TTTGCGGCTAG) | 0.00428 |
| TTTGGGGCATGGACCGGTTTTCCCGGTAATCCGTATTTGCT (site TTTGGGGCTAG) | 1.61 |
| TTTGGGGCATGGACCGGTTTTCCCGGTAATCCGTATTTGCT (site TTTGTGGCTAG) | 0.0107 |
| TTTGTAGCATGGACCGGTTTTCCCGGTAATCCGTATTTGGA (site TTTGTAGCTTC) | 0.00646 |
| TTTGTGTCATGGACCGGTTTTCCCGGTAATCCGTATTTGCG (site TTTGTGTCTCG) | 0.535 |
| TTTGTTTCATGGACCGGTTTTCCCGGTAATCCGTATTTGTT (site TTTGTTTCTAA) | 0 |
